Test results as given in patent US20210214375A1 (LUNDBECK LA JOLLA RESEARCH CENTER, INC., priority 2017, published 2021).

Columns and labels:
[1] = target: T1, MAGL (Mus musculus, UniProt O35678); assay: Mouse brain proteomes from inhibitor treated mice (oral gavage, brain proteomes analyzed 4 h after administration); type: in vivo, mouse (C57Bl/6J); settings: brain proteome 4 h after administration, read-out: % Inh 5 mg/kg MGLL (Mouse)
T1 construct: from tissue; host or cells: brain of wild-type C57Bl/6J mice
T1 sequence (O35678 1-303): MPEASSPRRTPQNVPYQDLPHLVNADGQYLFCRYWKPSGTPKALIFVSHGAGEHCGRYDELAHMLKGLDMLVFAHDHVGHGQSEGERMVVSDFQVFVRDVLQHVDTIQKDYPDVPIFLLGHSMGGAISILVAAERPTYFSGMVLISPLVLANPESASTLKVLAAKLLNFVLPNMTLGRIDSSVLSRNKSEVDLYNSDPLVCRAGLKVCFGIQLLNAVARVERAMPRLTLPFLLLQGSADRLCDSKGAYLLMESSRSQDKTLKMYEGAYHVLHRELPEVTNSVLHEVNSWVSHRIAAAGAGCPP
How it was run: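 Wild-type C57Bl/6J mice dosed orally in polyethylene glycol vehicle; brains removed 4 h post-dose and brain proteomes prepared and analysed for MAGL and serine hydrolase activity by previously established methods.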

[2] = target: T2, ABHD6 (Mus musculus, UniProt Q8R2Y0); assay: In vitro competitive activity-based protein profiling, mouse brain proteome, ABHD6; type: biochemical; settings: mouse
T2 construct: Brain; from tissue; host or cells: mouse brain proteome
T2 sequence (Q8R2Y0 1-336): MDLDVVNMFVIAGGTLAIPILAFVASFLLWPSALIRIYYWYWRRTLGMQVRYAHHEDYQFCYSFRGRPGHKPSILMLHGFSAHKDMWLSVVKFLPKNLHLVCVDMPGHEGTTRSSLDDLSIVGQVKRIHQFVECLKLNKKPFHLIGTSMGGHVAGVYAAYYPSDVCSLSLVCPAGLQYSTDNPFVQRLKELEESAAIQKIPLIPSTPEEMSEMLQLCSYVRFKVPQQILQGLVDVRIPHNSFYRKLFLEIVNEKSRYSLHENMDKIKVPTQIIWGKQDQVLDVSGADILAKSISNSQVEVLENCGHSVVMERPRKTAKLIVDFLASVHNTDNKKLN
Experimental: [Worded in the source for another target; this target is reported under the same test.] (§1) Proteomes (human prefrontal cortex or cell membrane fractions) (50 μL, 1.0 mg/mL total protein concentration) were preincubated with varying concentrations of inhibitors at 37° C. After 30 min, FP—Rh or HT-01 (1.0 μL, 50 μM in DMSO) was added and the mixture was incubated for another 30 min at room temperature. Reactions were quenched with SDS loading buffer (15 μL-4×) and run on SDS-PAGE.

[3] = target: T3, MGLL (Mus musculus, UniProt O35678); assay: In vitro competitive activity-based protein profiling, mouse brain proteome; type: biochemical
T3 construct: Brain; from tissue; host or cells: mouse brain proteome
T3 sequence (O35678 1-303): T1 sequence (O35678 1-303)
Experimental: [Worded in the source for another species; this species is reported under the same test.] as §1

Structure (SMILES)	inhibition at 5 mg/kg [1] [%]	IC50 [2] [nM]	IC50 [3] [nM]
CS(=O)(=O)N1CCC2(CCN(c3ccccc3CN3CCN(C(=O)OC(C(F)(F)F)C(F)(F)F)CC3)C2)C1 (stereo not drawn) [Example 165, 1,1,1,3,3,3-Hexafluoropropan-2-yl 4-(2-(7-(methylsulfonyl)-2,7-diazaspiro[4.4]nonan-2-yl)benzyl)piperazine-1-carboxylate]	≥ 75	> 1000	< 100
CC(=O)N1CCC2(CCN(c3ccccc3CN3CCN(C(=O)OC(C(F)(F)F)C(F)(F)F)CC3)C2)C1 (stereo not drawn) [Example 166, 1,1,1,3,3,3-Hexafluoropropan-2-yl 4-(2-(7-acetyl-2,7-diazaspiro[4.4]nonan-2-yl)benzyl)piperazine-1-carboxylate]	≤ 25	> 1000	< 100
CS(=O)(=O)N1CC2(CCN(c3ccccc3CN3CCN(C(=O)OC(C(F)(F)F)C(F)(F)F)CC3)C2)C1 [Example 167, 1,1,1,3,3,3-Hexafluoropropan-2-yl 4-(2-(2-(methylsulfonyl)-2,6-diazaspiro[3.4]octan-6-yl)benzyl)piperazine-1-carboxylate]	≥ 75	> 1000	< 100
O=C(OC(C(F)(F)F)C(F)(F)F)N1CCC2(CCN(Cc3cccc(Cl)c3N3CCCC3)CC2)C1 [Example 171, 1,1,1,3,3,3-Hexafluoropropan-2-yl 8-(3-chloro-2-(pyrrolidin-1-yl)benzyl)-2,8-diazaspiro[4.5]decane-2-carboxylate]	≥ 75	> 1000	< 100
CS(=O)(=O)N1CC2(CCN(c3cc(Cl)ccc3CN3CCN(C(=O)OC(C(F)(F)F)C(F)(F)F)CC3)C2)C1 [Example 175, 1,1,1,3,3,3-Hexafluoropropan-2-yl 4-(4-chloro-2-(2-(methylsulfonyl)-2,6-diazaspiro[3.4]octan-6-yl)benzyl)piperazine-1-carboxylate]	≥ 75	> 1000	< 100
CC(=O)N1CC2(CCN(c3cc(Cl)ccc3CN3CCN(C(=O)OC(C(F)(F)F)C(F)(F)F)CC3)C2)C1 [Example 176, 1,1,1,3,3,3-Hexafluoropropan-2-yl 4-(2-(2-acetyl-2,6-diazaspiro[3.4]octan-6-yl)-4-chlorobenzyl) piperazine-1-carboxylate]	≥ 75	> 1000	< 100
CN1CCC2(CCN(c3cc(Cl)ccc3CN3CCN(C(=O)OC(C(F)(F)F)C(F)(F)F)CC3)CC2)C1 [Example 177, 1,1,1,3,3,3-Hexafluoropropan-2-yl 4-(4-chloro-2-(2-methyl-2,8-diazaspiro[4.5]decan-8-yl)benzyl)piperazine-1-carboxylate]	25 to 75	> 1000	< 100
CC(=O)N1CCC2(CCN(c3cc(Cl)ccc3CN3CCN(C(=O)OC(C(F)(F)F)C(F)(F)F)CC3)CC2)C1 [Example 178, 1,1,1,3,3,3-Hexafluoropropan-2-yl 4-(2-(2-acetyl-2,8-diazaspiro[4.5]decan-8-yl)-4-chlorobenzyl) piperazie-1-carboxylate]	≥ 75	> 1000	< 100
CN1CC2(CCN(c3cc(C(F)(F)F)ccc3CN3CCN(C(=O)OC(C(F)(F)F)C(F)(F)F)CC3)C2)C1 [Example 179, 1,1,1,3,3,3-Hexafluoropropan-2-yl 4-(2-(2-methyl-2,6-diazaspiro[3.4]octan-6-yl)-4-(trifluoromethyl)benzyl)piperazine-1-carboxylate]	≥ 75	> 1000	< 100
O=C(OC(C(F)(F)F)C(F)(F)F)N1CCC2(CCN(Cc3ccc(Cl)cc3N3CCOCC3)CC2)C1 [Example 181, 1,1,1,3,3,3-Hexafluoropropan-2-yl 8-(4-chloro-2-molpholinobenzyl)-2,8-diazaspiro[4.5]decane-2-carboxylate]	≥ 75	> 1000	< 100
CN1CCC2(CCN(c3cc(C(F)(F)F)ccc3CN3CCN(C(=O)OC(C(F)(F)F)C(F)(F)F)CC3)CC2)C1 [Example 182, 1,1,1,3,3,3-Hexafluoropropan-2-yl 4-(2-(2-methyl-2,8-diazaspiro[4.5]decan-8-yl)-4-(trifluoromethyl)benzyl)piperazine-1-carboxylate]	≤ 25	> 1000	< 100

Continued, values first:

inhibition at 5 mg/kg [1] [%]	IC50 [2] [nM]	IC50 [3] [nM]	Structure (SMILES)
≥ 75	> 1000	< 100	O=C(OC(C(F)(F)F)C(F)(F)F)N1CCC2(CC1)CN(Cc1c(N3CCN(C4CC4)CC3)cccc1C(F)(F)F)C2 [Example 60, 1,1,1,3,3,3-Hexafluoropropan-2-yl 2-(2-(4-cyclopropylpiperazin-1-yl)-6-(trifluoromethyl)benzyl)-2,7-diazaspiro[3.5]nonane-7-carboxylate]
25 to 75	100 to 1000	< 100	CS(=O)(=O)N1CCC2(CCN(c3cccc(Cl)c3CN3CC4(CCN(C(=O)OC(C(F)(F)F)C(F)(F)F)CC4)C3)CC2)C1 [Example 61, 1,1,1,3,3,3-Hexafluoropropan-2-yl 2-(2-chloro-6-(2-(methylsulfonyl)-2,8-diazaspiro[4.5]decan-8-yl)benzyl)-2,7-diazaspiro[3.5]nonane-7-carboxylate]
25 to 75	> 1000	< 100	CS(=O)(=O)N1CCC2(CCN(c3cccc(C(F)(F)F)c3CN3CC4(CCN(C(=O)OC(C(F)(F)F)C(F)(F)F)CC4)C3)CC2)C1 [Example 62, 1,1,1,3,3,3-Hexafluoropropan-2-yl 2-(2-(2-(methylsulfonyl)-2,8-diazaspiro[4.5]decan-8-yl)-6-(trifluoromethyl)benzyl)-2,7-diazaspiro[3.5]nonane-7-carboxylate]
≥ 75	> 1000	< 100	CN(Cc1ccc(C(F)(F)F)cc1N1CCOCC1)C1(C)CCN(C(=O)OC(C(F)(F)F)C(F)(F)F)CC1 [Example 63, 1,1,1,3,3,3-Hexafluoropropan-2-yl 4-methyl-4-(methyl(2-morpholino-4-(trifluoromethyl)benzyl)amino) piperidine-1-carboxylate]
≥ 75	< 100	< 100	O=C(OC(C(F)(F)F)C(F)(F)F)N1CCC2(CC1)CN(Cc1ccc(C(F)(F)F)cc1)C2 [Example 69, 1,1,1,3,3,3-Hexafluoropropan-2-yl 2-(4-(trifluoromethyl)benzyl)-2,7-diazaspiro[3.5]nonane-7-carboxylate]
≥ 75	> 1000	< 100	CN(Cc1ccc(C(F)(F)F)cc1N1CCCC1)C1(C)CCN(C(=O)OC(C(F)(F)F)C(F)(F)F)CC1 [Example 72, 1,1,1,3,3,3-Hexafluoropropan-2-yl 4-methyl-4-(methyl(2-(pyrrolidin-1-yl)-4-(trifluoromethyl)benzyl)amino) piperidine-1-carboxylate]
≥ 75	100 to 1000	< 100	O=C(OC(C(F)(F)F)C(F)(F)F)N1CCC2(CC1)CN(Cc1ccc(C(F)(F)F)cc1N1CCCC1)C2 [Example 151, 1,1,1,3,3,3-Hexafluoropropan-2-yl 2-(2-(pyrrolidin-1-yl)-4-(trifluoromethyl)benzyl)-2,7-diazaspiro[3.5]nonane-7-carboxylate]
